Source: patent US8981047B2 (Indiana University Research and Technology Corporation, priority 2007, dated 2015)
Square brackets hold non-standard residues; d marks the D form. Peptide text beside a SMILES is read from it. Abu(4-SO3H) = N[C@@H](CCS(=O)(=O)O)C(=O)O; PhLac = O=C(O)[C@@H](O)Cc1ccccc1

Experiments:
glucagon receptor [1] = target: T1, glucagon receptor (Homo sapiens, UniProt P47871); assay: cAMP inhibition (antagonism of glucagon-induced cAMP production); type: cell-based; parameters: expressed in transfected cells; host or cells: HEK293; details: Tables 5-12 and FIGS. 4, 5, 7, 8
T1 sequence (P47871 26-477): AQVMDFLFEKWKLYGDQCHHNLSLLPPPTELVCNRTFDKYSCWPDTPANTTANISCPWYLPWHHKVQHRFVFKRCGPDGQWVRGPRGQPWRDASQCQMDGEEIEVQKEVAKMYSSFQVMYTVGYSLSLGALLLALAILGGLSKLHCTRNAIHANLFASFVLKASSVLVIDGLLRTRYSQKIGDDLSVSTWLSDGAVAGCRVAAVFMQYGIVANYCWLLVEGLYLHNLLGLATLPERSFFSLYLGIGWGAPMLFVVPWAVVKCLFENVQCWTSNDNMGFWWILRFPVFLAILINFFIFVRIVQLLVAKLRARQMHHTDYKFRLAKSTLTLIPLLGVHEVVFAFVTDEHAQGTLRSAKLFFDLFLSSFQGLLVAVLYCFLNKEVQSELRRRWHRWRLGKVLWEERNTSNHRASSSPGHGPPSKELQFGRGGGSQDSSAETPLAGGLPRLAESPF

GLP-1 receptor = GLP-1 receptor (Homo sapiens, UniProt P43220); assay: cAMP induction, firefly luciferase reporter assay in HEK293 cells; type: cell-based; details: Table 13; cells expressing the human GLP-1 receptor
Chain of GLP-1 receptor (P43220 24-463): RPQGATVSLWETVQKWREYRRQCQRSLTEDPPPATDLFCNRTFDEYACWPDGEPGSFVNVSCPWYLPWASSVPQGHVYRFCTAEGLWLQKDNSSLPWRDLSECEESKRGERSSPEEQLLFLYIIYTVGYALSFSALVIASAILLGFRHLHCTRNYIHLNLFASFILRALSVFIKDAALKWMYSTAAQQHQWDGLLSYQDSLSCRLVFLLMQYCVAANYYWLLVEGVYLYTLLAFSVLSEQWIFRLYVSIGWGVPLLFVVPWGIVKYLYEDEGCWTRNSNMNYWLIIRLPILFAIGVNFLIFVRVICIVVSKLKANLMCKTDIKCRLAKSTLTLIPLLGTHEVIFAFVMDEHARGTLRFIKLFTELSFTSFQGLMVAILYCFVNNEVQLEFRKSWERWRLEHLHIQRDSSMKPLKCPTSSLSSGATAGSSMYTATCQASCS

glucagon receptor [2] = target: T1, glucagon receptor; assay: Glucagon receptor binding assay (scintillation proximity competition with 125I-glucagon); details: 6-29 shortened glucagon amide backbone
glucagon receptor [3] = target: T1, glucagon receptor; assay: cAMP induction, firefly luciferase reporter assay in HEK293 cells; type: cell-based; parameters: expressed in transfected cells; host or cells: HEK293; details: read-out: cAMP Induction Glucagon Receptor EC50; Table 2

Question: For `CC(C)C[C@H](NC(=O)[C@H](Cc1ccc(O)cc1)NC(=O)[C@H](CCCCN)NC(=O)[C@H](CO)NC(=O)[C@H](Cc1ccc(O)cc1)NC(=O)[C@H](CCS(=O)(=O)O)NC(=O)[C@H](CO)NC(=O)[C@@H](NC(=O)[C@H](Cc1ccccc1)NC(=O)[C@@H](NC(=O)[C@H](CC(C)C)NC(=O)[C@H](CCC(N)=O)NC(=O)[C@@H](N)CO)[C@@H](C)O)[C@@H](C)O)C(=O)N[C@@H](CC(=O)O)C(=O)N[C@@H](CO)C(=O)N[C@@H](CCCNC(=N)N)C(=O)N[C@@H](CCCNC(=N)N)C(=O)N[C@@H](C)C(=O)N[C@@H](CCC(N)=O)C(=O)N[C@@H](CC(=O)O)C(=O)N[C@@H](Cc1ccccc1)C(=O)N[C@H](C(=O)N[C@@H](CCC(N)=O)C(=O)N[C@@H](Cc1ccccc1)C(=O)N[C@@H](CC(C)C)C(=O)N[C@@H](CC(C)C)C(=O)N[C@@H](CC(N)=O)C(=O)N[C@H](C(N)=O)[C@@H](C)O)C(C)C` [[desHis^1, Leu^4, hCys^9(SO3-), Phe^25, Leu^27] Glucagon-NH2] (H-SQLTFTS[Abu(4-SO3H)]YSKYLDSRRAQDFVQFLLNT-NH2; N-terminus assumed), which “glucagon antagonism in the cAMP bioassay, result in words” value (“glucagon antagonism” for short) (glucagon receptor [1]) is on record?
Answer: Its value is “some level of antagonism”.

Question: For `CSCC[C@H](NC(=O)[C@H](CC(C)C)NC(=O)[C@H](Cc1c[nH]c2ccccc12)NC(=O)[C@H](CCC(N)=O)NC(=O)[C@@H](NC(=O)[C@H](Cc1ccccc1)NC(=O)[C@H](CC(=O)O)NC(=O)[C@H](CCC(N)=O)NC(=O)[C@H](C)NC(=O)[C@H](CCCNC(=N)N)NC(=O)[C@H](CCCNC(=N)N)NC(=O)[C@H](CO)NC(=O)[C@H](CC(=O)O)NC(=O)[C@H](CC(C)C)NC(=O)[C@H](Cc1ccc(O)cc1)NC(=O)[C@H](CCCCN)NC(=O)[C@H](CO)NC(=O)[C@H](Cc1ccc(O)cc1)NC(=O)[C@H](CCC(=O)O)NC(=O)[C@H](CO)NC(=O)[C@@H](NC(=O)[C@@H](O)Cc1ccccc1)[C@@H](C)O)C(C)C)C(=O)N[C@@H](CC(N)=O)C(=O)N[C@H](C(N)=O)[C@@H](C)O` [[PLA6, E9]Glucagon(aa6-29)-NH2] (H-[PhLac]TSEYSKYLDSRRAQDFVQWLMNT-NH2), which “GLP-1 agonism EC50” value (GLP-1 receptor) is on record?
Answer: Its value is “No agonism”.

Question: For `CSCC[C@H](NC(=O)[C@H](CC(C)C)NC(=O)[C@H](Cc1c[nH]c2ccccc12)NC(=O)[C@H](CCC(N)=O)NC(=O)[C@@H](NC(=O)[C@H](Cc1ccccc1)NC(=O)[C@H](CC(=O)O)NC(=O)[C@H](CCC(N)=O)NC(=O)[C@H](C)NC(=O)[C@H](CCCNC(=N)N)NC(=O)[C@H](CCCNC(=N)N)NC(=O)[C@H](CO)NC(=O)[C@H](CC(=O)O)NC(=O)[C@H](CC(C)C)NC(=O)[C@H](Cc1ccc(O)cc1)NC(=O)[C@H](CCCCN)NC(=O)[C@H](CO)NC(=O)[C@H](Cc1ccc(O)cc1)NC(=O)[C@H](CCS(=O)(=O)O)NC(=O)[C@H](CO)NC(=O)[C@@H](NC(=O)[C@H](Cc1ccccc1)NC(=O)[C@@H](NC(=O)CN)[C@@H](C)O)[C@@H](C)O)C(C)C)C(=O)N[C@@H](CC(N)=O)C(=O)N[C@H](C(N)=O)[C@@H](C)O` [[hCys^9(SO3H)]Glucagon(aa4-29)-NH2, [hCys(SO3H)9]glucagon (4-29) amide] (H-GTFTS[Abu(4-SO3H)]YSKYLDSRRAQDFVQWLMNT-NH2; N-terminus assumed), which “glucagon antagonism” value (glucagon receptor [1]) is on record?
Answer: Its value is “full antagonists”.

Question: For “PLA6 analog: native glucagon with first 5 residues deleted and N-terminal amino group of Phe replaced with hydroxyl (phenyl-lactic acid); SEQ ID NO: 39”, which “increase of affinity for the glucagon receptor relative to the native Phe6 analog” value (glucagon receptor [2]) is on record?
Answer: Its value is “threefold”.

Question: Which “glucagon antagonism” value (glucagon receptor [1]) does the source give for `CC(C)C[C@H](NC(=O)[C@H](Cc1ccc(O)cc1)NC(=O)[C@H](CCCCN)NC(=O)[C@H](CO)NC(=O)[C@H](Cc1ccc(O)cc1)NC(=O)[C@H](CCS(=O)(=O)O)NC(=O)[C@H](CO)NC(=O)[C@@H](NC(=O)[C@@H](NC(=O)CNC(=O)[C@H](CCC(N)=O)NC(=O)[C@@H](N)CO)[C@@H](C)O)[C@@H](C)O)C(=O)N[C@@H](CC(=O)O)C(=O)N[C@@H](CO)C(=O)N[C@@H](CCCNC(=N)N)C(=O)N[C@@H](CCCNC(=N)N)C(=O)N[C@@H](C)C(=O)N[C@@H](CCC(N)=O)C(=O)N[C@@H](CC(=O)O)C(=O)N[C@@H](Cc1ccccc1)C(=O)N[C@H](C(=O)N[C@@H](CCC(N)=O)C(=O)N[C@@H](Cc1ccccc1)C(=O)N[C@@H](CC(C)C)C(=O)N[C@@H](CC(C)C)C(=O)N[C@@H](CC(N)=O)C(=O)N[C@H](C(N)=O)[C@@H](C)O)C(C)C` [[desHis^1, desPhe^6, hCys^9(SO3-), Phe^25, Leu^27] Glucagon-NH2] (H-SQGTTS[Abu(4-SO3H)]YSKYLDSRRAQDFVQFLLNT-NH2; N-terminus assumed) here?
Answer: The value was “some level of antagonism”.

Question: For Oxyntomodulin C24 PEG 20 K, which EC50 (glucagon receptor [3]) is on record?
Answer: Its EC50 is 0.97 ± 0.04 nM.

Question: With `CSCC[C@H](NC(=O)[C@H](CC(C)C)NC(=O)[C@H](Cc1c[nH]c2ccccc12)NC(=O)[C@H](CCC(N)=O)NC(=O)[C@@H](NC(=O)[C@H](Cc1ccccc1)NC(=O)[C@H](CC(=O)O)NC(=O)[C@H](CCC(N)=O)NC(=O)[C@H](C)NC(=O)[C@H](CCCNC(=N)N)NC(=O)[C@H](CCCNC(=N)N)NC(=O)[C@H](CO)NC(=O)[C@H](CC(=O)O)NC(=O)[C@H](CC(C)C)NC(=O)[C@H](Cc1ccc(O)cc1)NC(=O)[C@H](CCCCN)NC(=O)[C@H](CO)NC(=O)[C@H](Cc1ccc(O)cc1)NC(=O)[C@H](CCS(=O)(=O)O)NC(=O)[C@H](CO)NC(=O)[C@@H](NC(=O)[C@H](Cc1ccccc1)NC(=O)[C@@H](N)[C@@H](C)O)[C@@H](C)O)C(C)C)C(=O)N[C@@H](CC(N)=O)C(=O)N[C@H](C(N)=O)[C@@H](C)O` [[hCys^9(SO3H)]Glucagon(aa5-29)-NH2, [hCys(SO3H)9]glucagon (5-29) amide] (H-TFTS[Abu(4-SO3H)]YSKYLDSRRAQDFVQWLMNT-NH2; N-terminus assumed) as the molecule, how does the “glucagon antagonism” value (glucagon receptor [1]; listed as 5-29 hCys9) read?
Answer: The value was “pure potent antagonism, without any measurable agonist activity”.

Question: And the “glucagon antagonism” value (glucagon receptor [1]; listed as 5-29 hCys9-based glucagon antagonist)?
Answer: Its value is “more potent and effective than the literature standards”.

Question: And the “glucagon antagonism” value (glucagon receptor [1]; listed as 5-29 hCys(SO3H)^9)?
Answer: The value was “full antagonists”.

Question: With `CSCC[C@H](NC(=O)[C@H](CC(C)C)NC(=O)[C@H](Cc1c[nH]c2ccccc12)NC(=O)[C@H](CCC(N)=O)NC(=O)[C@@H](NC(=O)[C@H](Cc1ccccc1)NC(=O)[C@H](CC(=O)O)NC(=O)[C@H](CCC(N)=O)NC(=O)[C@H](C)NC(=O)[C@H](CCCNC(=N)N)NC(=O)[C@H](CCCNC(=N)N)NC(=O)[C@H](CO)NC(=O)[C@H](CC(=O)O)NC(=O)[C@H](CC(C)C)NC(=O)[C@H](Cc1ccc(O)cc1)NC(=O)[C@H](CCCCN)NC(=O)[C@H](CO)NC(=O)[C@H](Cc1ccc(O)cc1)NC(=O)[C@H](CCS(=O)(=O)O)NC(=O)[C@H](CO)NC(=O)[C@@H](NC(=O)[C@@H](N)Cc1ccccc1)[C@@H](C)O)C(C)C)C(=O)N[C@@H](CC(N)=O)C(=O)N[C@H](C(N)=O)[C@@H](C)O` [[hCys^9(SO3H)]Glucagon(aa6-29)-NH2] (H-FTS[Abu(4-SO3H)]YSKYLDSRRAQDFVQWLMNT-NH2) as the molecule, how does the “glucagon antagonism” value (glucagon receptor [1]; listed as 6-29 hCys9) read?
Answer: The value was “pure potent antagonism, without any measurable agonist activity”.

Question: What about the “glucagon antagonism” value (glucagon receptor [1]; listed as 6-29 hCys(SO3H)^9) of the same molecule?
Answer: Its value is “full antagonists”.
